US9023861B2, “Anticancer combination of artemisinin-based drugs and other chemotherapeutic agents” (Sigma-Tau Industrie Farmaceutiche Riunite, S.p.A., priority 2009, dated 2015)

Legend:
MCF-7 = test: Anti-proliferative activity, sulphorodamine B test; format: cell-based; conditions: Homo sapiens, MCF7, 24 h exposure, 48 h recovery
Method: (§1) The biological activity of DHA and ART on tumour cells survival was evaluated. The latter were seeded in 96-well tissue culture plates at approximately 10% confluence and were allowed to attach and recover for at least 24 h before being exposed to DHA or ART for 24 h at 37° C. They were then washed to remove DHA and ART and left to recover for 48 hours in medium culture. The medium culture was then removed and cells were washed three times with PBS. The plates were then incubated for on ice for 1 hour with 200 μl of PBS and 50 μl of cold 80% TCA before being washed with distilled water, dried on paper and finally at 40° C. for 5 minutes. 200 μl of 0.4% sulphorodamine B in 1% acetic acid were added and the incubation was prolonged for 30 minutes. Sulphorodamine B was removed, and the plates were washed 3 times with 1% acetic acid. They were finally dried on paper followed by standing at 40° C. for 5 minutes. Then 200 μl Tris 10 mM were added, the plates were kept under stirring for 20 minutes. Cell survival was determined as optical density at 540 nm by means of a Multiskan spectrofluorimeter. The amount of cells killed was expressed as the percentage decrease in sulphorodamine B binding compared to control cultures. IC50 were generated with their standard deviations by the ALLFIT program.

NCI-H460 = test: Anti-proliferative activity, sulphorodamine B test; format: cell-based; conditions: Homo sapiens, 24 h exposure, 48 h recovery
Method: as §1

A2780 = test: Anti-proliferative activity, sulphorodamine B test; format: cell-based; conditions: Homo sapiens, 24 h exposure, 48 h recovery
Method: as §1

LoVo = test: Anti-proliferative activity, sulphorodamine B test; format: cell-based; conditions: Homo sapiens, 24 h exposure, 48 h recovery
Method: as §1

HT29 = test: Anti-proliferative activity, sulphorodamine B test; format: cell-based; conditions: Homo sapiens, HT-29, 24 h exposure, 48 h recovery
Method: as §1

MCF-7/Dx MDR = test: Anti-proliferative activity, sulphorodamine B test; format: cell-based
Method: as §1

LoVo/Dx MDR = test: Anti-proliferative activity, sulphorodamine B test; format: cell-based; conditions: LoVo/Dx MDR; 24 h exposure, 48 h recovery
Method: as §1

HCT116 = test: Anti-proliferative activity, sulphorodamine B test; format: cell-based; conditions: Homo sapiens, HCT-116, 24 h exposure, 48 h recovery
Method: as §1

SW620 = test: Anti-proliferative activity, sulphorodamine B test; format: cell-based; conditions: Homo sapiens, SW-620, 24 h exposure, 48 h recovery
Method: as §1

[1] = tested on: NCI-H460 non-small cell lung carcinoma; test: In vivo antitumor activity, s.c. xenograft in CD1 nude mice; conditions: DHA 200 mg/kg p.o., AZD2281 100 mg/kg i.p., qdx5/wx3w
Method: NCI-H460 non-small cell lung carcinoma cells were inoculated subcutaneously (s.c.) in the right flank of CD1 nude mice (3×10^6/0.1 ml of Medium 199). Treatments started three days after tumour injection. Mice were subdivided (10 mice/group) in the following experimental groups:
(§2) a) Vehicle (DMSO 10%) 10 ml/kg, i.p.;
b) DHA 200 mg/kg, p.o. qdx5/wx3w;
d) AZD2281+DHA (doses and schedules as above).
For the latter experiment DHA was administered immediately before AZD2281.
To evaluate the antitumour activity, tumour diameters were measured with a Vernier calliper according to the formula TV=d^2×D/2 where d and D are the shortest and longest diameters, respectively.
When tumours reached a volume of about 1500 mm^3, mice were sacrificed by cervical dislocation. The efficacy of the drug was assessed as the tumour volume inhibition according to the formula reported underneath: […]
Body weight recording was carried out to evaluate body weight loss as calculated in the equation underneath: […]
Wherein BW day x corresponds to the mean weight at day x of the experiment meanwhile BW day 1 corresponds to the mean weight at the first day of the experiment.

[2] = tested on: HCT116 colon cancer cells; test: In vivo antitumour activity, s.c. xenograft in CD1 nude mice; conditions: DHA 200 mg/kg p.o., AZD2281 100 mg/kg i.p., qdx5/wx4w
Method: HCT116 colon cancer cells were inoculated subcutaneously (s.c.) in the right flank of CD1 nude mice (5×10^6/0.1 ml of Medium 199). Treatments started three days after tumour injection. Mice were subdivided (8 mice/group) in the following experimental groups:
as §2
b) DHA 200 mg/kg, p.o. qdx5/wx4w;
d) AZD2281+DHA (doses and schedules as above);
e) ABT-888 50 mg/kg, i.p. qdx5/wx4w;
f) ABT-888+DHA (doses and schedules as above).
DHA was administered immediately before AZD2281 or ABT-888.
The antitumour activity was evaluated according to the protocol reported hereinabove in example 3 when tumours reached a volume of about 500 mm^3.
Body weight recording was carried out to evaluate body weight loss according to the protocol reported hereinabove in example 3.

C[C@H]1[C@@H](O)O[C@@H]2O[C@@]3(C)CC[C@H]4[C@H](C)CC[C@@H]1[C@@]24OO3 [DHA, dihydroartemisinin]
IC50 (MCF-7): 1.05 ± 0.08 µM
IC50 (NCI-H460): 8.16 ± 0.5 µM
IC50 (A2780): 0.23 ± 0.02 µM
IC50 (LoVo): 2.57 ± 0.8 µM
IC50 (HT29): 5.8 ± 0.5 µM
IC50 (MCF-7/Dx MDR; MCF7/DX, MCF-7/Dx MDR, 24 h exposure, 48 h recovery): 0.97 ± 0.3 µM
resistance index (MCF-7/Dx MDR; MCF-7/Dx MDR versus MCF-7): 0.92
IC50 (LoVo/Dx MDR): 1.18 ± 0.3 µM
IC50 (HCT116): 0.37 ± 0.08 µM
IC50 (SW620): 1.8 ± 0.1 µM
tolerability (body weight loss during the treatment) ([1]; NCI-H460 xenograft mice): well-tolerated
BWL % ([1]; body weight loss, NCI-H460 xenograft, CD1 nude mice): 0%
TVI % ([1]; tumour volume inhibition, NCI-H460 xenograft, CD1 nude mice): 3%
TV ± SE ([1]; tumour volume, NCI-H460 xenograft, CD1 nude mice, sacrifice at about 1500 mm^3): 1575 ± 191
tolerability (body weight loss during the treatment) ([2]; HCT116 xenograft mice, ABT-888 50 mg/kg): well-tolerated
BWL % ([2]; body weight loss, HCT116 xenograft, CD1 nude mice, ABT-888 50 mg/kg i.p.): 1%
TVI % ([2]; tumour volume inhibition, HCT116 xenograft, CD1 nude mice, ABT-888 50 mg/kg i.p.): 0%
TV ± SE ([2]; tumour volume, HCT116 xenograft, CD1 nude mice, ABT-888 50 mg/kg i.p., evaluated at about 500 mm^3): 447 ± 39
